≈ marks a conversion by molar mass, not a printed value. Read-outs that look alike come from different tables or passages of the source.
Legend:
[1] = tested on: Mast cells from the peritoneal tissue of rats; assay: Inhibition of substance P-induced release of histamine from mast cells; assay type: cell-based, rat; details: for inhibition at 0.5 µg/mL / inhibition at 5 µg/mL / inhibition at 50 µg/mL: Rattus norvegicus, Mast cell, 2 min, substance P 10 μM, 37° C., based on histamine content of cells stimulated with substance P; for inhibition at 0.5 µg/mL: 0.5 ppm synthetic substance; for inhibition at 5 µg/mL: 5 ppm synthetic substance; for inhibition at 50 µg/mL: 50 ppm synthetic substance; for activity in inhibiting substance P-induced histamine release, in words: structure/activity considerations, Tables 1a/1b; for IC50: positive control, read-out: concentration for 50% inhibition of substance P-induced release of histamine
Description: Stock solutions: avenanthramides 2 to 19 (structural formulae: see Table 1a) and dianthramides 20-29 (structural formulae: see Table 1b); concentration: 1% in ethanol; storage before use at 4° C.) Mast cells from the peritoneal tissue of rats were isolated by centrifuging on metrizamide and stimulated with substance P (10 μM). […] The synthetically prepared avenanthramides and dianthramides of the Formulae 2 to 29 (cf. […] Test system: The final test solutions were incubated for 2 minutes in the presence of substance P and of the reference substance (CaCl2) or of the particular sample to be tested (incubation temperature: 37° C.). Cells that had been incubated in the absence of substance P and reference or sample substance served as blank. The reaction solutions were first freed from cell constituents by centrifuging. The histamine present in the supernatant liquor was then converted to a derivative with OPT and the fluorescence of the solutions was determined photometrically (fluorometer Cytofluor 2350). […] The values for the various avenanthramides are given in Table 2 as % inhibition based on the histamine content of cells stimulated with substance P without the addition of inhibitors.

[2] = tested on: mast cells; details: cited from earlier work
[3] = tested on: rat mast cells; details: oral application, dose of 200 mg/kg; cited from earlier work
[4] = tested on: mast cells; assay: Substance P-induced release of histamine from mast cells (Hachisuka et al.); assay type: cell-based; details: 10^−3 M converted with molecular weight 327
Source text: As Komatsu et al report, tranilast inhibits the antigen-(DNP ascaris; monoclonal IgE antibody with 2,4-dinitrophenyl-specificity) induced release of histamine from mast cells in the concentration range of 10^−3 to 10^−5 M. It was possible to achieve 50% inhibition of the histamine release at a concentration of approximately 10^−4 M. On the other hand, the influence of other anthranilic acid amides on the inhibition of the release of histamine from mast cells was not described in the publication. Hachisuka et al. (Arch. Dermatol. Res. Vol. 280, p. 158-162; 1988) investigated the influence of various active compounds on the inhibition of the substance P-induced release of histamine from mast cells. Here the activity of disodium chromogylcate (sic), ketotifen and tranilast was compared. […] Other anthranilic acid amides were not investigated in more detail within the framework of this research work either.
The comparatively low activity of tranilast agrees with the research carried out by Hachisuka et al. (Arch Dermatol Res Vol. 280, p. 158-162; 1988). […] Apparently, the alkylation of the vicinal hydroxyl groups in the cinnamic acid part or dihydrocinnamic acid part is accompanied by a significant reduction in activity.

[5] = tested on: mast cells; details: cited from earlier work; remark: listed apart in the source

With `COc1ccc(CCC(=O)Nc2ccccc2C(=O)O)cc1OC` [compound 19] the inhibition at 0.5 µg/mL [1] was -15%, the inhibition at 5 µg/mL [1] was -22% and the inhibition at 50 µg/mL [1] was -4%.

For `O=C([O-])c1cc(=O)c2c(OCC(O)COc3cccc4oc(C(=O)[O-])cc(=O)c34)cccc2o1.[Na+].[Na+]` [DSCG, disodium cromoglycate], the “inhibition of substance P-induced histamine release” value ([2]; at 10^−3 M) is given as 41%.

For `COc1ccc(/C=C/C(=O)Nc2ccccc2C(=O)O)cc1OC` [substance 15, N-(3,4-dimethoxy-cinnamoyl)anthranilic acid], the “inhibition of antigen-induced destruction of rat mast cells” value [3] is listed as 46.1%, the “concentration for 50% inhibition of the substance P-induced histamine release” value [4] is listed as 327 ppm and the IC50 ([4]; Mast cell, read-out: concentration for 50% inhibition of the substance P-induced histamine release) is listed as 327 µg/mL (≈ 999 µM). For the same molecule, the inhibition at 50 µg/mL [1] was 21%, the IC50 ([2]; Hachisuka et al. 1988, read-out: concentration for 50% inhibition of the substance P-induced histamine release) was ~1000 µM and the “concentration range inhibiting antigen-induced release of histamine” value ([5]; DNP ascaris, monoclonal IgE antibody with 2,4-dinitrophenyl-specificity) was 10^−3 to 10^−5 M. For the same molecule, the IC50 ([5]; antigen-induced (DNP ascaris), read-out: concentration for 50% inhibition of the histamine release) was ~100 µM.

`COc1cc(C(=O)Nc2ccccc2C(=O)O)ccc1O` [compound 25, 2-[(4-hydroxy-3-methoxybenzoyl)amino]-benzoic acid] gave an inhibition at 0.5 µg/mL [1] of 8%, an inhibition at 5 µg/mL [1] of 42% and an inhibition at 50 µg/mL [1] of 51%.

In the case of `O=C(Nc1ccccc1C(=O)O)c1ccc(O)c(O)c1` [compound 20, 2-[(3,4-dihydroxybenzoyl)amino]benzoic acid], the inhibition at 0.5 µg/mL [1] is reported as 14%, the inhibition at 5 µg/mL [1] is reported as 76% and the inhibition at 50 µg/mL [1] is reported as 110%. The “activity in inhibiting substance P-induced histamine release, in words” value [1] was “greatest activity”.

With `O=C(/C=C/c1ccccc1)Nc1ccccc1C(=O)O` [compound 17] the inhibition at 0.5 µg/mL [1] was 4%, the inhibition at 5 µg/mL [1] was 7% and the inhibition at 50 µg/mL [1] was 6%.

`O=C(Nc1ccccc1C(=O)O)c1ccccc1` [compound 27] showed an inhibition at 0.5 µg/mL [1] of 27%, an inhibition at 5 µg/mL [1] of 28% and an inhibition at 50 µg/mL [1] of 39%.

Molecule `O=C(/C=C/c1ccc(O)cc1)Nc1ccc(O)cc1C(=O)O` [compound 7] has an inhibition at 0.5 µg/mL [1] of 27%, an inhibition at 5 µg/mL [1] of 26% and an inhibition at 50 µg/mL [1] of 40%.

`COc1ccc(/C=C/C(=O)Nc2ccc(O)cc2C(=O)O)cc1OC` [compound 13] showed an inhibition at 0.5 µg/mL [1] of 17%, an inhibition at 5 µg/mL [1] of 2% and an inhibition at 50 µg/mL [1] of 30%.

`O=C(/C=C/c1ccccc1)Nc1ccc(O)cc1C(=O)O` [compound 12] gave an inhibition at 0.5 µg/mL [1] of -5%, an inhibition at 5 µg/mL [1] of 0% and an inhibition at 50 µg/mL [1] of 34%.

`O=C(Nc1ccccc1C(=O)O)c1ccc(O)cc1` [compound 24, 2-[(4-hydroxy-benzoyl)amino]benzoic acid] gave an inhibition at 0.5 µg/mL [1] of 7%, an inhibition at 5 µg/mL [1] of 19% and an inhibition at 50 µg/mL [1] of 55%.

`COc1ccc(CCC(=O)Nc2ccc(O)cc2C(=O)O)cc1OC` [compound 11] showed an inhibition at 0.5 µg/mL [1] of -6%, an inhibition at 5 µg/mL [1] of 11% and an inhibition at 50 µg/mL [1] of 36%.

Molecule `O=C(/C=C/c1ccc(O)cc1)Nc1cc(O)ccc1C(=O)O` [compound 6] has an inhibition at 0.5 µg/mL [1] of -9%, an inhibition at 5 µg/mL [1] of 1% and an inhibition at 50 µg/mL [1] of 41%.

With `O=C(/C=C/c1ccc(O)cc1)Nc1ccccc1C(=O)O` [compound 10] the inhibition at 0.5 µg/mL [1] was -10%, the inhibition at 5 µg/mL [1] was 8% and the inhibition at 50 µg/mL [1] was 37%.

For `O=C(CCc1ccc(O)cc1)Nc1ccc(O)cc1C(=O)O` [compound 5], the inhibition at 0.5 µg/mL [1] was 7%, the inhibition at 5 µg/mL [1] was 17% and the inhibition at 50 µg/mL [1] was 47%.

Molecule `COc1cc(/C=C/C(=O)Nc2ccc(O)cc2C(=O)O)ccc1O` [compound 4] has an inhibition at 0.5 µg/mL [1] of 3%, an inhibition at 5 µg/mL [1] of 49% and an inhibition at 50 µg/mL [1] of 59%.

For `O=C(/C=C/c1ccc(O)c(O)c1)Nc1ccc(O)cc1C(=O)O` [compound 3], the inhibition at 0.5 µg/mL [1] was 11%, the inhibition at 5 µg/mL [1] was 62% and the inhibition at 50 µg/mL [1] was 106%. For the same molecule, the “activity in inhibiting substance P-induced histamine release, in words” value [1] was “complete inhibition of the histamine release”.

With `COc1cc(/C=C/C(=O)Nc2ccccc2C(=O)O)ccc1O` [compound 9] the inhibition at 0.5 µg/mL [1] was 11%, the inhibition at 5 µg/mL [1] was 19% and the inhibition at 50 µg/mL [1] was 39%.

Molecule `O=C(Nc1ccc(O)cc1C(=O)O)c1ccc(O)cc1` [compound 21] has an inhibition at 0.5 µg/mL [1] of -15%, an inhibition at 5 µg/mL [1] of 48% and an inhibition at 50 µg/mL [1] of 76%.

In the case of `O=C(Nc1ccccc1C(=O)O)c1ccc(O)cc1O` [compound 26], the inhibition at 0.5 µg/mL [1] is reported as -13%, the inhibition at 5 µg/mL [1] is reported as 22% and the inhibition at 50 µg/mL [1] is reported as 48%.

With `COc1ccc(/C=C/C(=O)Nc2ccccc2C(=O)O)cc1OC` [compound 15] the inhibition at 0.5 µg/mL [1] was 23% and the inhibition at 5 µg/mL [1] was 22%.

Work on `O=C(Nc1ccccc1C(=O)O)c1cc(O)c(O)c(O)c1` [compound 22, 2-[(3,4,5-trihydroxy-benzoyl)amino]benzoic acid] yielded an inhibition at 0.5 µg/mL [1] of 39%, an inhibition at 5 µg/mL [1] of 72% and an inhibition at 50 µg/mL [1] of 71%.

`COc1ccc(C(=O)Nc2ccccc2C(=O)O)cc1O` [compound 23, 2-[(3-hydroxy-4-methoxybenzoyl)amino]-benzoic acid] gave an inhibition at 0.5 µg/mL [1] of 9%, an inhibition at 5 µg/mL [1] of 29% and an inhibition at 50 µg/mL [1] of 69%.

For `COC(=O)c1ccccc1NC(=O)/C=C/c1ccc(OC)c(OC)c1` [compound 18], the inhibition at 0.5 µg/mL [1] was 5%, the inhibition at 5 µg/mL [1] was -3% and the inhibition at 50 µg/mL [1] was 6%.

Work on `O=C(/C=C/c1ccc(O)c(O)c1)Nc1ccccc1C(=O)O` [compound 2] yielded an inhibition at 0.5 µg/mL [1] of 7%, an inhibition at 5 µg/mL [1] of 80% and an inhibition at 50 µg/mL [1] of 108%. The “activity in inhibiting substance P-induced histamine release, in words” value [1] was “complete inhibition of the histamine release”.

In the case of `O=C(/C=C/c1ccc(O)cc1)Nc1ccccc1C(=O)O` [substance 10, N-(4-hydroxycinnamoyl)anthranilic Acid], the “inhibition of antigen-induced destruction of rat mast cells” value [3] is listed as 36.7%.

For `[Ca+2].[Cl-].[Cl-]` [calcium chloride, reference compound], the IC50 ([1]; test series 3.1 (synthetic anthranilic acid amides)) was 639 µM and the IC50 ([1]; test series 3.2 (oat fraction vs reconstituted product)) was 432 µM.

`O=C(Nc1ccccc1C(=O)O)c1cccc(O)c1` [compound 28, 2-[(3-hydroxy-benzoyl)amino]benzoic acid] showed an inhibition at 0.5 µg/mL [1] of 12%, an inhibition at 5 µg/mL [1] of 25% and an inhibition at 50 µg/mL [1] of 35%.

`O=C(Nc1ccccc1C(=O)O)c1ccccc1O` [compound 29] showed an inhibition at 0.5 µg/mL [1] of -1%, an inhibition at 5 µg/mL [1] of 15% and an inhibition at 50 µg/mL [1] of 23%.

`COC(=O)c1ccccc1NC(=O)CCc1ccc(OC)c(OC)c1` [compound 16] gave an inhibition at 0.5 µg/mL [1] of 26%, an inhibition at 5 µg/mL [1] of 25% and an inhibition at 50 µg/mL [1] of 7%.

With `O=C(CCc1ccc(O)cc1)Nc1ccccc1C(=O)O` [compound 8] the inhibition at 0.5 µg/mL [1] was 13%, the inhibition at 5 µg/mL [1] was 26% and the inhibition at 50 µg/mL [1] was 40%.

Work on `COc1ccc(/C=C/C(=O)Nc2ccccc2C(=O)O)cc1` [compound 14] yielded an inhibition at 0.5 µg/mL [1] of 21%, an inhibition at 5 µg/mL [1] of 30% and an inhibition at 50 µg/mL [1] of 24%.
